Test results: patent publication US6387906B1, “2,4,4-trisubstituted-1,3-dioxolane antifungals” (priority 1997, dated 2002)
Structures can show the parent of a compound that is named as a salt.

How the values were obtained:
[1] = tested on: Candida kefyr; test: Measurement of antifungal activity in vitro (lowest active dose) vs. Candida kefyr; assay type: cell-based; conditions: lowest concentration inhibiting growth below 35% of control growth; CYG broth, 37° C. for 48 h, turbidimetry
Experimental: (§1) Test compounds were dissolved at a concentration of 10^−2 M in dimethyl sulfoxide (DMSO) and diluted into CYG broth (Odds, F. C. Antimicrobial Agents and Chemotherapy 1992; 36: 1727-1737) to give a final concentration of 25 μM and, in most tests, 5 μM. For some compounds the tests were done at 100, 10, 1.0 and 0.1 μM. Cultures were inoculated with Candida.kefyr to an initial concentration of 10^4/ml and with Trichophyton rubrum to an equivalent concentration determined by turbidimetry. Cultures were incubated in the wells of microdilution plates at 37° C. for 48 h (C. kefyr) and at 30° C. for 5-7 days (T. rubrum). Growth in wells containing test compounds was estimated turbidimetrically as a percentage of growth in compound-free controls and the lowest concentration of compound that inhibited the growth of an isolate below 35% of control growth was recorded as the lowest active dose (LAD).

[2] = tested on: Trichophyton rubrum; test: Measurement of antifungal activity in vitro (lowest active dose) vs. Trichophyton rubrum; assay type: cell-based; conditions: lowest concentration inhibiting growth below 35% of control growth; CYG broth, 30° C. for 5-7 days, turbidimetry
Experimental: as §1

Compound	LAD (μM) vs. C. keyr [1]	LAD (μM) vs. T. rubrum [2]	melting point [°C]
CCCN1C(=O)N(c2ccc(N3CCN(c4ccc(OCC5OCC(Cn6ccnc6)(c6ccc(Cl)cc6)O5)cc4)CC3)cc2)CC1(C)C (racemic) [Compound 5]	≦25 μM	≦5 μM	–
CC(C)N1CCN(c2ccc(N3CCN(c4ccc(OC[C@@H]5OC[C@@](Cn6ccnc6)(c6ccc(Cl)cc6)O5)cc4)CC3)cc2)C1=O (racemic) [Compound 28]	≦25 μM	≦5 μM	–
CN1CCN(c2ccc(N3CCN(c4ccc(OC[C@@H]5OC[C@@](Cn6ccnc6)(c6ccc(F)cc6)O5)cc4)CC3)cc2)C1=O (racemic) [Compound 42]	≦5 μM	≦5 μM	–
CCCCN1CCN(c2ccc(N3CCN(c4ccc(OC[C@@H]5OC[C@@](Cn6ccnc6)(c6ccc(F)cc6)O5)cc4)CC3)cc2)C1=O (racemic) [Compound 26]	≦25 μM	≦5 μM	–
CC(C)N1CCN(c2ccc(N3CCN(c4ccc(OC[C@@H]5OC[C@@](Cn6cncn6)(c6ccc(F)cc6F)O5)cc4)CC3)cc2)C1=O (stereo in doubt) [Compound 41]	≦0.1 μM	≦0.1 μM	–
CCCN1C(=O)N(c2ccc(N3CCN(c4ccc(OC[C@@H]5OC[C@@](Cn6cncn6)(c6ccc(F)cc6)O5)cc4)CC3)cc2)CC1(C)C (racemic) [Compound 13]	≦5 μM	≦5 μM	–
CCN1CCN(c2ccc(N3CCN(c4ccc(OC[C@@H]5OC[C@@](Cn6ccnc6)(c6ccc(Cl)cc6)O5)cc4)CC3)cc2)C1=O (racemic) [Compound 27]	≦5 μM	≦5 μM	–
CC(C)N(C)C(=O)Nc1ccc(N2CCN(c3ccc(OCC4OCC(Cn5cncn5)(c5ccc(F)cc5F)O4)cc3)CC2)cc1 (stereo not drawn) (as salt: HCl) [Compound 54, (B-cis)-N-[4-[4-[4-[[4-(2,4-difluorophenyl)-4-(1H-1,2,4-triazol-1-yl-methyl)-1,3-dioxolan-2-yl]methoxy]phenyl]-1-piperazinyl]phenyl]-N′-methyl-N′-(1-methylethyl)urea]	–	–	186
CC(C)NC(=O)Nc1ccc(N2CCN(c3ccc(OCC4OCC(Cn5cncn5)(c5ccc(F)cc5F)O4)cc3)CC2)cc1 (stereo not drawn) [Compound 53, (2S-cis)-N-[4-[4-[4-[[4-(2,4-difluorophenyl)-4-(1H-1,2,4-triazol-1-ylmetyl)-1,3-dioxolan-2-yl]-methoxy]phenyl]-1-piperazinyl]phenyl]-N′-(1-methylethyl)urea]	–	–	196
CCCN1C(=O)N(c2ccc(N3CCN(c4ccc(OC[C@@H]5OC[C@@](Cn6cncn6)(c6ccc(Cl)cc6)O5)cc4)CC3)cc2)CC1(C)C (racemic) [Compound 9]	≦25 μM	≦25 μM	–
CCN1C(=O)N(c2ccc(N3CCN(c4ccc(OC[C@H]5OC[C@](Cn6cncn6)(c6ccc(F)cc6F)O5)cc4)CC3)cc2)C(=O)C(C)(C)C1=O [Compound 49]	1 µM	1 µM	–
CCC(C)N1CCN(c2ccc(N3CCN(c4ccc(OC[C@@H]5OC[C@@](Cn6cncn6)(c6ccc(F)cc6F)O5)cc4)CC3)cc2)C1=O (relative stereo) [Compound 21, cis-1-[4-[4-[4-[[4-(2,4-difluorophenyl)-4-(1H-1,2,4-triazol-1-ylmethyl)-1,3-dioxolan-2-yl]methoxy]phenyl]-1-piperazinyl]phenyl]-3-(1-methylpropyl)-2-imidazolidinone]	≦0.1 μM	≦0.1 μM	–
CCCN1C(=O)N(c2ccc(N3CCN(c4ccc(OC[C@@H]5OC[C@@](Cn6ccnc6)(c6ccc(F)cc6)O5)cc4)CC3)cc2)CC1(C)C (racemic) [Compound 12]	≦25 μM	≦5 μM	–
CC(C)N1CCN(c2ccc(N3CCN(c4ccc(OC[C@@H]5OC[C@@](Cn6ccnc6)(c6ccc(F)cc6F)O5)cc4)CC3)cc2)C1=O (racemic) [Compound 34]	≦5 μM	≦5 μM	–
CCC1C(=O)N(c2ccc(N3CCN(c4ccc(OC[C@@H]5OC[C@@](Cn6cncn6)(c6ccc(F)cc6F)O5)cc4)CC3)cc2)C(=O)N1CC (mixture of isomers) [Compound 20]	≦5 μM	>25 µM	–
CCC(C)N1CCN(c2ccc(N3CCN(c4ccc(OC[C@@H]5OC[C@@](Cn6ccnc6)(c6ccc(F)cc6F)O5)cc4)CC3)cc2)C1=O (mixture of isomers) [Compound 35]	≦25 μM	≦5 μM	–

Compound	LAD (μM) vs. C. keyr [1]	LAD (μM) vs. T. rubrum [2]	melting point [°C]
CCC(CC)N1CCN(c2ccc(N3CCN(c4ccc(OC[C@@H]5OC[C@@](Cn6ccnc6)(c6ccc(F)cc6)O5)cc4)CC3)cc2)C1=O (racemic) [Compound 44]	≦5 μM	≦5 μM	–
CCCn1c(=O)n(CC)c(=O)n(-c2ccc(N3CCN(c4ccc(OC[C@H]5OC[C@](Cn6cncn6)(c6ccc(F)cc6F)O5)cc4)CC3)cc2)c1=O (relative stereo) [Compound 47, (2S-cis)-1-ethyl-3-[4-[4-[4-[[4-(2,4-difluorophenyl)-4-(1H-1,2,4-triazol-1-ylmethyl)-1,3-dioxolan-2-yl]methoxy]-phenyl]-1-piperazinyl]phenyl]-5-propyl-1,3,5-triazine-2,4,6(1H,3H,5H)-trione]	>100 µM	1 µM	–
CC(C)N1CCN(c2ccc(N3CCN(c4ccc(OC[C@@H]5OC[C@@](Cn6cncn6)(c6ccc(F)cc6F)O5)cc4)CC3)cc2)C1=O [Compound 50]	1 µM	1 µM	–
CCCN1CCN(c2ccc(N3CCN(c4ccc(OCC5OCC(Cn6ccnc6)(c6ccc(Cl)cc6)O5)cc4)CC3)cc2)C1=O (racemic) [Compound 4]	≦5 μM	≦5 μM	–
CCCn1c(=O)n(CC)c(=O)n(-c2ccc(N3CCN(c4ccc(OC[C@@H]5OC[C@@](Cn6cncn6)(c6ccc(F)cc6F)O5)cc4)CC3)cc2)c1=O [Compound 46]	1 µM	100 µM	–
CCN1C(=O)N(c2ccc(N3CCN(c4ccc(OC[C@@H]5OC[C@@](Cn6cncn6)(c6ccc(F)cc6F)O5)cc4)CC3)cc2)C(C)(C)C1=O (racemic) [Compound 19]	≦5 μM	≦25 μM	–
CCN1CCN(c2ccc(N3CCN(c4ccc(OC[C@@H]5OC[C@@](Cn6ccnc6)(c6ccc(F)cc6)O5)cc4)CC3)cc2)C1=O (racemic) [Compound 24]	≦25 μM	≦5 μM	–
CCN1CCN(c2ccc(N3CCN(c4ccc(OC[C@@H]5OC[C@@](Cn6ccnc6)(c6ccc(F)cc6F)O5)cc4)CC3)cc2)C1=O (racemic) [Compound 32]	≦25 μM	≦5 μM	–
CCCN1CCN(c2ccc(N3CCN(c4ccc(OC[C@@H]5OC[C@@](Cn6ccnc6)(c6ccc(F)cc6F)O5)cc4)CC3)cc2)C1=O (racemic) [Compound 30]	≦5 μM	≦5 μM	–
CC(C)N1CCN(c2ccc(N3CCN(c4ccc(OC[C@@H]5OC[C@@](Cn6cncn6)(c6ccc(F)cc6)O5)cc4)CC3)cc2)C1=O (racemic) [Compound 40]	≦25 μM	≦5 μM	–
CCCCN1CCN(c2ccc(N3CCN(c4ccc(OC[C@@H]5OC[C@@](Cn6ccnc6)(c6ccc(Cl)cc6)O5)cc4)CC3)cc2)C1=O (racemic) [Compound 29]	≦25 μM	≦5 μM	–
CCCN1CCN(c2ccc(N3CCN(c4ccc(OC[C@@H]5OC[C@@](Cn6ccnc6)(c6ccc(F)cc6)O5)cc4)CC3)cc2)C1=O (racemic) [Compound 25]	≦5 μM	≦5 μM	–
CC(C)N1CCN(c2ccc(N3CCN(c4ccc(OC[C@H]5OC[C@](Cn6cncn6)(c6ccc(F)cc6F)O5)cc4)CC3)cc2)C1=O.Cl (stereo in doubt) [Compound 52, (2S-cis)-1-[4-[4-[4-[[4-(2,4-difluorophenyl)-4-(1H-1,2,4-triazol-1-ylmethyl)-1,3-dioxolan-2-yl]methoxy]phenyl]-1-piperazinyl]phenyl]-3-(1-methylethyl)-2-imidazolidinone hydrochloride (1:1)]	≦0.1 μM	≦0.1 μM	–
CCN1C(=O)N(c2ccc(N3CCN(c4ccc(OC[C@@H]5OC[C@@](Cn6cncn6)(c6ccc(F)cc6F)O5)cc4)CC3)cc2)C(=O)C(C)(C)C1=O (relative stereo) [Compound 48, (2R-cis)-1-ethyl-3-[4-[4-[4-[[4-(2,4-diflurorophenyl)-4-(1H-1,2,4-triazol-1-ylmethyl)-1,3-dioxolan-2-yl]methoxy]phenyl]-1-piperazinyl]phenyl]-5,5-dimethyl-2,4,6(1H,3H,5H)-pyrimidinetrione]	10 µM	>100 µM	–
CC(C)N1CCN(c2ccc(N3CCN(c4ccc(OC[C@@H]5OC[C@@](Cn6ccnc6)(c6ccc(F)cc6)O5)cc4)CC3)cc2)C1=O (racemic) [Compound 23]	≦5 μM	≦5 μM	–
